Key:
[1] = molecular target: T1, GtACR1 (Guillardia theta, UniProt L1J207); test: light-induced pH change of yeast cell suspension (pH electrode); format: cell-based; settings: 300 mM NaNO3; 530 nm LED 10 mW/cm^2; initial pH about 5; about 16 °C
T1 construct: gene GUITHDRAFT_111593; 295 residues, C-terminal 8xHis tag, codon-optimised gene, expressed in Pichia pastoris SMD1168H cells; also purified in DDM

[2] = molecular target: T1, GtACR1; test: visible absorption spectrum of purified protein; format: binding; settings: covalent (retinal protonated Schiff base); 10 mM MOPS pH 7, 1 M NaCl, 0.05% DDM

T1 sequence (L1J207 entry or part of it): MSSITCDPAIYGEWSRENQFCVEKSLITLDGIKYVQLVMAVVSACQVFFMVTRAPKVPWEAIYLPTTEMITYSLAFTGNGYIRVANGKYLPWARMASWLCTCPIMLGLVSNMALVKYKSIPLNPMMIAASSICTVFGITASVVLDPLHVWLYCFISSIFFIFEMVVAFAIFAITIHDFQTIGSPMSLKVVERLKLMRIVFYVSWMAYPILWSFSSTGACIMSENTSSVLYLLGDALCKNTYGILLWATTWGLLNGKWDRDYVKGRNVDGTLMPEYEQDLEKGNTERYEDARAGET

| Structure (SMILES) | light-induced pH change of yeast cell suspension (pH electrode) [1] | visible absorption spectrum of purified protein [2] |
| --- | --- | --- |
| O=[N+]([O-])O [NO3^−] | significant transport activities were obtained for the anions except for F^− and Asp^− |  |
| CC1=C(/C=C/C(C)=C/C=C/C(C)=C/C=O)C(C)(C)CCC1 [all-trans-retinal] |  | Visible absorption spectrum of purified GtACR1 |

From publication PMC8041784, “Preference of Proteomonas sulcata anion channelrhodopsin for NO3^− revealed using a pH electrode method” (Scientific Reports, 2021)
